# Read-outs that look alike come from different tables or passages of the source.
# Key:
# [1] = target: panel of 255 wild-type kinases (Homo sapiens, UniProt P29317); assay: Kinase panel profiling at 1 µmol/L (MSA or IMAP), percentage inhibition; format: biochemical; conditions: kinase EPHA2; 1 µmol/L single concentration; read-out: %-inhibition at 1 µmol/L, EPHA2
# [2] = target: panel of 255 wild-type kinases (Homo sapiens, UniProt Q9Y6M4); assay: as above; format: biochemical; conditions: kinase CK1γ3; 1 µmol/L single concentration; read-out: %-inhibition at 1 µmol/L, CK1γ3
# [3] = test system: AP-1060 (ETV6-NTRK3); assay: Cell viability assay; conditions: read-out: IC50 in cell proliferation assay
# [4] = test system: 134 cancer cell lines; assay: Cell viability assay (ATPlite, 72 hours), IC50 on cancer cell line panel
compound,measurement,setting,value
C[C@H](Nc1ncnc2nc[nH]c12)c1cc2cccc(Cl)c2c(=O)n1-c1ccccc1 [duvelisib],inhibition at 1 µM,[1],-6.36%
same,inhibition at 1 µM,[2],-0.689%
same,IC50,[3],11.3 µM
same,IC50,"[4]; HEC-6, read-out: IC50 in cell proliferation assay, HEC-6 cell line (EGFR p.A289V)",> 31.6 µM
same,IC50,"[4]; Homo sapiens, 769-P, read-out: IC50 in cell proliferation assay, cell line 769-P",31.1 µM
same,IC50,"[4]; Homo sapiens, 786-0, read-out: IC50 in cell proliferation assay, cell line 786-O",14.2 µM
same,IC50,"[4]; Homo sapiens, A 172, read-out: IC50 in cell proliferation assay, cell line A-172",> 31.6 µM
same,IC50,"[4]; Homo sapiens, A204, read-out: IC50 in cell proliferation assay, cell line A-204",1.19 µM
same,IC50,"[4]; Homo sapiens, A498, read-out: IC50 in cell proliferation assay, cell line A-498",3.39 µM
same,IC50,"[4]; Homo sapiens, A549, read-out: IC50 in cell proliferation assay, cell line A-549",23.9 µM
same,IC50,"[4]; Homo sapiens, A704, read-out: IC50 in cell proliferation assay, cell line A-704",> 31.6 µM
same,IC50,"[4]; Homo sapiens, A-375, read-out: IC50 in cell proliferation assay, cell line A-375 (BRAF p.V600E)",23.4 µM
same,IC50,"[4]; Homo sapiens, A-427, read-out: IC50 in cell proliferation assay, cell line A-427",14.9 µM
same,IC50,"[4]; Homo sapiens, ACHN, read-out: IC50 in cell proliferation assay, cell line ACHN",7.17 µM
same,IC50,"[4]; Homo sapiens, AN3-CA, read-out: IC50 in cell proliferation assay, cell line AN3-CA (FGFR2 p.N549K)",4.2 µM
same,IC50,"[4]; Homo sapiens, ASPC1, read-out: IC50 in cell proliferation assay, cell line AsPC-1",> 31.6 µM
same,IC50,"[4]; Homo sapiens, AU565, read-out: IC50 in cell proliferation assay, cell line AU565 (ERBB2 amplification)",7.67 µM
same,IC50,"[4]; Homo sapiens, BT-20, read-out: IC50 in cell proliferation assay, cell line BT-20",30 µM
same,IC50,"[4]; Homo sapiens, BT-474, read-out: IC50 in cell proliferation assay, cell line BT-474 (ERBB2 amplification)",9.09 µM
same,IC50,"[4]; Homo sapiens, BT-549, read-out: IC50 in cell proliferation assay, cell line BT-549",0.348 µM
same,IC50,"[4]; Homo sapiens, BXPC-3, read-out: IC50 in cell proliferation assay, cell line BxPC-3",16.6 µM
same,IC50,"[4]; Homo sapiens, C-33-A, read-out: IC50 in cell proliferation assay, cell line C-33 A",9.87 µM
same,IC50,"[4]; Homo sapiens, CAL-27, read-out: IC50 in cell proliferation assay, cell line CAL-27",8.89 µM
same,IC50,"[4]; Homo sapiens, CCF-STTG1, read-out: IC50 in cell proliferation assay, cell line CCF-STTG1",> 31.6 µM
same,IC50,"[4]; Homo sapiens, CCRF-CEM, read-out: IC50 in cell proliferation assay, cell line CCRF-CEM",0.916 µM
same,IC50,"[4]; Homo sapiens, COLO 205, read-out: IC50 in cell proliferation assay, cell line COLO 205 (BRAF p.V600E)",20.5 µM
same,IC50,"[4]; Homo sapiens, COLO-829, read-out: IC50 in cell proliferation assay, cell line COLO 829 (BRAF p.V600E)",> 31.6 µM
same,IC50,"[4]; Homo sapiens, DLD-1, read-out: IC50 in cell proliferation assay, cell line DLD-1",18.5 µM
same,IC50,"[4]; Homo sapiens, DU-4475, read-out: IC50 in cell proliferation assay, cell line DU4475 (BRAF p.V600E)",> 31.6 µM
same,IC50,"[4]; Homo sapiens, Daoy, read-out: IC50 in cell proliferation assay, cell line Daoy",12.1 µM
same,IC50,"[4]; Homo sapiens, DoTc2-4510, read-out: IC50 in cell proliferation assay, cell line DoTc2 4510",8.98 µM
same,IC50,"[4]; Homo sapiens, EOL1, read-out: IC50 in cell proliferation assay, cell line EoL-1 (FIP1L1-PDGFRA)",0.033 µM
same,IC50,"[4]; Homo sapiens, FaDu, read-out: IC50 in cell proliferation assay, cell line FaDu",18.7 µM
same,IC50,"[4]; Homo sapiens, G-361, read-out: IC50 in cell proliferation assay, cell line G-361 (BRAF p.V600E)",22.1 µM
same,IC50,"[4]; Homo sapiens, HCC827, read-out: IC50 in cell proliferation assay, cell line HCC827 (EGFR exon19del)",2.18 µM
same,IC50,"[4]; Homo sapiens, HCC4006, read-out: IC50 in cell proliferation assay, cell line HCC4006 (EGFR exon19del)",26 µM
same,IC50,"[4]; Homo sapiens, HCT-15, read-out: IC50 in cell proliferation assay, cell line HCT 15",> 31.6 µM
same,IC50,"[4]; Homo sapiens, HCT-116, read-out: IC50 in cell proliferation assay, cell line HCT 116",27.6 µM
same,IC50,"[4]; Homo sapiens, HEC-1, read-out: IC50 in cell proliferation assay, HEC-1 cell line",11.2 µM
same,IC50,"[4]; Homo sapiens, HEC-1B, read-out: IC50 in cell proliferation assay, HEC-1-B cell line (EGFR p.A864V)",4.51 µM
same,IC50,"[4]; Homo sapiens, HL-60, read-out: IC50 in cell proliferation assay, HL-60 cell line",4.97 µM
same,IC50,"[4]; Homo sapiens, HT, read-out: IC50 in cell proliferation assay, HT cell line",4.63 µM
same,IC50,"[4]; Homo sapiens, HT-1080, read-out: IC50 in cell proliferation assay, HT-1080 cell line",3.97 µM
same,IC50,"[4]; Homo sapiens, Hs746T, read-out: IC50 in cell proliferation assay, Hs 746.T cell line (MET exon14skip + amplification)",4.43 µM
same,IC50,"[4]; Homo sapiens, Hs-578T, read-out: IC50 in cell proliferation assay, Hs 578T cell line",2.62 µM
same,IC50,"[4]; Homo sapiens, HuTu80, read-out: IC50 in cell proliferation assay, HuTu 80 cell line",15 µM
same,IC50,"[4]; Homo sapiens, J82, read-out: IC50 in cell proliferation assay, J82 cell line",23.8 µM
same,IC50,"[4]; Homo sapiens, Jurkat E6.1, read-out: IC50 in cell proliferation assay, Jurkat E6.1 cell line",6.94 µM
same,IC50,"[4]; Homo sapiens, K562, read-out: IC50 in cell proliferation assay, K-562 cell line",12.3 µM
same,IC50,"[4]; Homo sapiens, KATO III, read-out: IC50 in cell proliferation assay, KATO III cell line (FGFR2 amplification)",23.1 µM
same,IC50,"[4]; Homo sapiens, KG-1, read-out: IC50 in cell proliferation assay, KG-1 cell line (FGFR1OP2-FGFR1)",> 31.6 µM
same,IC50,"[4]; Homo sapiens, KLE, read-out: IC50 in cell proliferation assay, KLE cell line",4.37 µM
same,IC50,"[4]; Homo sapiens, KMS-11, read-out: IC50 in cell proliferation assay, KMS-11 cell line (FGFR3 p.Y373C)",11.4 µM
same,IC50,"[4]; Homo sapiens, KU812, read-out: IC50 in cell proliferation assay, Ku812 cell line",12.8 µM
same,IC50,"[4]; Homo sapiens, Kasumi 1, read-out: IC50 in cell proliferation assay, Kasumi-1 cell line (KIT p.N822K)",5.79 µM
same,IC50,"[4]; Homo sapiens, LC-2-ad, read-out: IC50 in cell proliferation assay, LC-2/ad cell line (CCDC6-RET)",0.095 µM
same,IC50,"[4]; Homo sapiens, LNCaP-Clone-FGC, read-out: IC50 in cell proliferation assay, LNCaP clone FGC cell line",0.119 µM
same,IC50,"[4]; Homo sapiens, LS174T, read-out: IC50 in cell proliferation assay, LS174T cell line",31.2 µM
same,IC50,"[4]; Homo sapiens, LS-411N, read-out: IC50 in cell proliferation assay, LS411N cell line (BRAF p.V600E)",26.3 µM
same,IC50,"[4]; Homo sapiens, LoVo, read-out: IC50 in cell proliferation assay, LoVo cell line",9.26 µM
same,IC50,"[4]; Homo sapiens, MCF7, read-out: IC50 in cell proliferation assay, MCF-7 cell line",11.8 µM
same,IC50,"[4]; Homo sapiens, MDA-MB-231, read-out: IC50 in cell proliferation assay, MDA-MB-231 cell line",> 31.6 µM
same,IC50,"[4]; Homo sapiens, MDA-MB-453, read-out: IC50 in cell proliferation assay, MDA-MB-453 cell line",> 31.6 µM
same,IC50,"[4]; Homo sapiens, MDA-MB-468, read-out: IC50 in cell proliferation assay, MDA-MB-468 cell line",1.3 µM
same,IC50,"[4]; Homo sapiens, MG-63, read-out: IC50 in cell proliferation assay, MG-63 cell line",7.8 µM
same,IC50,"[4]; Homo sapiens, MIA PaCa-2, read-out: IC50 in cell proliferation assay, MIA PaCa-2 cell line",12.9 µM
same,IC50,"[4]; Homo sapiens, MKN-45, read-out: IC50 in cell proliferation assay, MKN45 cell line (MET amplification)",2.36 µM

# From paper PMC9516332 (Frontiers in Oncology, 2022)
